Experimental data reported in paper PMC10766964, “Copper-catalyzed synthesis of pyrazolo[1,5-a]pyrimidine based triazole-linked glycohybrids: mechanistic insights and bio-applications” (Scientific Reports, 2024).

How the values were obtained:
[1] = system: MDA-MB-231 (human breast cancer) cell line; assay: MTT cell viability assay in MDA-MB-231 cells; type: cell-based; conditions: for inhibition at 25 µM: MDA-MB-231, 25 μM concentration; for IC50: MDA-MB-231, MTT, concentrations 10, 25 and 50 µM, n = 3, read-out: IC50 against MDA-MB-231 breast cancer cell line; for IC50 / viability at 10 µM / viability at 25 µM / viability at 50 µM: 72 h; for viability at 10 µM / viability at 25 µM / viability at 50 µM: Table 2, MDA-MB-231, MTT, read-out: Cell viability (%) ± SD
Outline: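 MDA-MB-231 cells in DMEM/10% FBS, used before passage 8, exposed to compounds at several concentrations for 72 h at 37 °C. MTT added for 3 h; formazan dissolved in DMSO and read at 595 nm. Viability expressed as percent of untreated control.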

[2] = system: MCF-7 (hormone receptor/HR-positive breast cancer cells); assay: MTT cell viability assay in MCF-7 cells; type: cell-based; conditions: Homo sapiens, MCF7, 72 h, concentrations 10 µM, 25 µM and 50 μM in Fig. 10, read-out: IC50 against MCF-7 breast cancer cells line
[3] = system: MCF-7 (hormone receptor/HR-positive breast cancer cells); assay: MTT cell viability assay in MCF-7 cells; type: cell-based; conditions: Homo sapiens, MCF7, read-out: Cell viability (%) ± SD; for viability at 1 µM: MCF-7, 1 µM; for viability at 10 µM: MCF-7, 10 µM; for viability at 25 µM: MCF-7, 25 µM
Procedure: MDA-MB-231 represents a specific subtype known as triple-negative breast cancer (TNBC). The investigation study was extended with active six hit compounds (9a, 9d, 9h, 10d, 10f, and 11g) in two other different cancer cell lines (MCF-7 and MDA-MB-453), each representing a separate class of breast cancers (MCF-7: hormone receptor/HR-positive; MDA-MB-453: human epidermal growth factor 2 receptor/HER2 positive).
We also included normal mammary epithelial MCF-10A cells in our experiments to confirm if the growth-inhibitory activities of the selected compounds are truly cancer cell-specific. The activity data from MCF-7 and MDA-MB-453 cell lines (tested at 1 µM, 10 µM and 25 µM) and activity data from MCF-10A cell line (tested at 25 µM, 50 µM and 100 µM) are summarized in Table 3.
To evaluate cell viability, the MTT assay was conducted following standard procedures. After 72 h of cell incubation with or without each compound, cell viability was assessed using MTT (3-(4,5-dimethylthiazol-2-yl)-2,5-diphenyltetrazolium bromide), which is a colorimetric method for determining the number of viable cells in various assays including proliferation, cytotoxicity, or chemosensitivity. The MTT reagent was added to the cells after removal of the medium and incubated for 3 h at 37 °C in the CO2 incubator. The formazan product, which is […] in the tissue culture medium, was dissolved in DMSO, and the absorbance of the formazan product was directly measured at 595 nm using a multimode plate reader without additional processing. The absorbance values are directly proportional to the number of viable cells in culture. The percentage of viable cells in each group was determined relative to the untreated control cells.

[4] = system: MDA-MB-453 (HER2 positive breast cancer cells); assay: MTT cell viability assay in MDA-MB-453 cells; type: cell-based, human; conditions: for viability at 1 µM / viability at 10 µM / viability at 25 µM: Homo sapiens, read-out: Cell viability (%) ± SD; for viability at 1 µM: MDA-MB-453, 1 µM; for viability at 10 µM: MDA-MB-453, 10 µM; for viability at 25 µM: MDA-MB-453, 25 µM; for IC50 value against MDA-MB-453 cells (in words): tested at 1 µM, 10 µM and 25 µM
Procedure: MDA-MB-231 represents a specific subtype known as triple-negative breast cancer (TNBC). The investigation study was extended with active six hit compounds (9a, 9d, 9h, 10d, 10f, and 11g) in two other different cancer cell lines (MCF-7 and MDA-MB-453), each representing a separate class of breast cancers (MCF-7: hormone receptor/HR-positive; MDA-MB-453: human epidermal growth factor 2 receptor/HER2 positive). […] We also included normal mammary epithelial MCF-10A cells in our experiments to confirm if the growth-inhibitory activities of the selected compounds are truly cancer cell-specific. The activity data from MCF-7 and MDA-MB-453 cell lines (tested at 1 µM, 10 µM and 25 µM) and activity data from MCF-10A cell line (tested at 25 µM, 50 µM and 100 µM) are summarized in Table 3. To evaluate cell viability, the MTT assay was conducted following standard procedures. After 72 h of cell incubation with or without each compound, cell viability was assessed using MTT (3-(4,5-dimethylthiazol-2-yl)-2,5-diphenyltetrazolium bromide), which is a colorimetric method for determining the number of viable cells in various assays including proliferation, cytotoxicity, or chemosensitivity. The MTT reagent was added to the cells after removal of the medium and incubated for 3 h at 37 °C in the CO2 incubator. The formazan product, which is […] in the tissue culture medium, was dissolved in DMSO, and the absorbance of the formazan product was directly measured at 595 nm using a multimode plate reader without additional processing. The absorbance values are directly proportional to the number of viable cells in culture. The percentage of viable cells in each group was determined relative to the untreated control cells.

Row | SMILES | inhibition at 25 µM [1] [%] | IC50 [1] [µM] | viability at 10 µM [1] [%] | viability at 25 µM [1] [%] | viability at 50 µM [1] [%] | IC50 [2] [µM] | viability at 1 µM [3] [%] | viability at 10 µM [3] [%] | viability at 25 µM [3] [%] | viability at 1 µM [4] [%] | viability at 10 µM [4] [%] | viability at 25 µM [4] [%] | IC50 value against MDA-MB-453 cells (in words) [4]
1 | CC(=O)OC[C@H]1O[C@@H](n2cc(COc3cc(-c4ccc(C)cc4)nc4ccnn34)nn2)[C@H](OC(C)=O)[C@@H](OC(C)=O)[C@@H]1OC(C)=O [Compound 9a, (2R,3R,4S,5R,6R)-2-(acetoxymethyl)-6-(4-(((5-(p-tolyl)pyrazolo[1,5-a]pyrimidin-7-yl)oxy)methyl)-1H-1,2,3-triazol-1-yl)tetrahydro-2H-pyran-3,4,5-triyl triacetate] | ~50 | 29.6 | 70.1 ± 9.53 | 51 ± 9.19 | 35.3 ± 4.29 | 35.4 | 68.7 ± 1.18 | 41.3 ± 3.6 | 21.7 ± 4 | 80.6 ± 8 | 86.4 ± 5.4 | 78.1 ± 5.7 | did not reach up to IC50 value
2 | CC(=O)OC[C@H]1O[C@@H](n2cc(COc3cc(-c4ccc(Cl)cc4)nc4ccnn34)nn2)[C@H](OC(C)=O)[C@@H](OC(C)=O)[C@@H]1OC(C)=O [Compound 9d, (2R,3R,4S,5R,6R)-2-(acetoxymethyl)-6-(4-(((5-(4-chlorophenyl)pyrazolo[1,5-a]pyrimidin-7-yl)oxy)methyl)-1H-1,2,3-triazol-1-yl)tetrahydro-2H-pyran-3,4,5-triyl triacetate] | ~50 | 43.1 | 75.6 ± 9.76 | 61 ± 8.47 | 58.6 ± 5.61 | 15.3 | 100 ± 4.5 | 69.8 ± 1.8 | 62.8 ± 3 | 80.8 ± 3.2 | 82.2 ± 11.5 | 65.3 ± 5.8 | did not reach up to IC50 value
3 | CC(=O)OC[C@H]1O[C@@H](n2cc(COc3cc(-c4ccc5ccccc5c4)nc4ccnn34)nn2)[C@H](OC(C)=O)[C@@H](OC(C)=O)[C@@H]1OC(C)=O [Compound 9h, (2R,3R,4S,5R,6R)-2-(acetoxymethyl)-6-(4-(((5-(naphthalen-2-yl)pyrazolo[1,5-a]pyrimidin-7-yl)oxy)methyl)-1H-1,2,3-triazol-1-yl)tetrahydro-2H-pyran-3,4,5-triyl triacetate] | ~50 | 35.9 | 96.6 ± 3.36 | 55.2 ± 7.06 | 42.8 ± 5.04 | 21.1 | 79.2 ± 2.6 | 58.7 ± 2.4 | 42.3 ± 7.6 | 105 ± 8.1 | 74.8 ± 1.5 | 66.4 ± 3.2 | did not reach up to IC50 value
4 | CC(=O)OC[C@H]1O[C@@H](n2cc(COc3cc(-c4ccc(Cl)cc4)nc4ccnn34)nn2)[C@H](OC(C)=O)[C@@H](OC(C)=O)[C@H]1OC(C)=O [Compound 10d, (2R,3S,4S,5R,6R)-2-(acetoxymethyl)-6-(4-(((5-(4-chlorophenyl)pyrazolo[1,5-a]pyrimidin-7-yl)oxy)methyl)-1H-1,2,3-triazol-1-yl)tetrahydro-2H-pyran-3,4,5-triyl triacetate] | ~50 | 29.1 | 56.7 ± 8.23 | 53.3 ± 6.32 | 41 ± 4.91 | 40.1 | 66 ± 4.7 | 34 ± 2.5 | 20 ± 2.9 | 88.8 ± 5.2 | 78.3 ± 4.7 | 69.6 ± 5.3 | did not reach up to IC50 value
5 | CC(=O)OC[C@H]1O[C@@H](n2cc(COc3cc(-c4ccc(C(F)(F)F)cc4)nc4ccnn34)nn2)[C@H](OC(C)=O)[C@@H](OC(C)=O)[C@H]1OC(C)=O [Compound 10f, (2R,3S,4S,5R,6R)-2-(acetoxymethyl)-6-(4-(((5-(4-(trifluoromethyl)phenyl)pyrazolo[1,5-a]pyrimidin-7-yl)oxy)methyl)-1H-1,2,3-triazol-1-yl)tetrahydro-2H-pyran-3,4,5-triyl triacetate] | ~50 | 31.2 | 69.4 ± 5.36 | 45.1 ± 3.32 | 41.2 ± 1.26 | 42.1 | 51.3 ± 3.1 | 28.4 ± 0.9 | 21.1 ± 4.4 | 92.5 ± 4.6 | 80.9 ± 1.2 | 66.8 ± 1.7 | did not reach up to IC50 value
6 | CC(=O)OC[C@H]1O[C@H](n2cc(COc3cc(-c4ccc(C(C)C)cc4)nc4ccnn34)nn2)[C@@H](OC(C)=O)[C@@H](OC(C)=O)[C@@H]1OC(C)=O [Compound 11g, (2R,3R,4S,5S,6S)-2-(acetoxymethyl)-6-(4-(((5-(4-isopropylphenyl)pyrazolo[1,5-a]pyrimidin-7-yl)oxy)methyl)-1H-1,2,3-triazol-1-yl)tetrahydro-2H-pyran-3,4,5-triyl triacetate] | ~50 | 38.8 | 66.7 ± 8.21 | 54.3 ± 6.12 | 45.3 ± 4.11 | 18.3 | 70.8 ± 4.2 | 68.2 ± 3.8 | 49.1 ± 3.5 | 95.4 ± 4.8 | 76.4 ± 5.4 | 96.1 ± 35.7 | did not reach up to IC50 value
